{"source": "patent US9023998B2", "about": "“Near infrared fluorogen and fluorescent activating proteins for in vivo imaging and live-cell biosensing” (Carnegie Mellon University, priority 2013, dated 2015)", "key": {"mL9.5 (SEQ. ID. NO. 21)": {"test_system": "mL9.5 (SEQ. ID. NO. 21)", "assay": "Fluorogen activation by purified monomeric FAP mL9.5 (spectra)", "type": "biochemical", "settings": "purified protein, about 300 nM fluorogen, PBS pH 7.4", "excerpt": "While the peptide linker that joins the VL units in dL9.2 (SEQ. ID. NO. 2) and dL9.5 (SEQ. ID. NO. 3) enhance fluorogen binding affinity and binding rate by reducing the entropic cost of assembly around the fluorogen, the linker is not strictly necessary for fluorogenic activation. […] In panels C and D, corresponding spectra from mL9.5:SKC602 (SEQ. ID. NO. 21:SKC602) and mL9.5:SKC728 (SEQ. ID. NO. 21:SKC728) fluoromodules are shown. Spectra were obtained using a Quantamaster™ fluorometer (PTI) equipped with dual monochromators on both excitation and emission light paths.\nTo facilitate ligase-dependent cloning methods, the above procedure was repeated for dL9.5 (SEQ. ID. NO. 6), using otherwise identical primers that appended BspEI (TCCGGA) (SEQ. ID. NO. 25) and BamHI (GGATCC) (SEQ. ID. NO. 26) sites directly at the 5′ and 3′ termini, respectively, of the dL9.5 gene (SEQ. ID. NO. 6). The resulting plasmid, designated pPNL9z-dL9.5, could be digested with BspEI (SEQ. ID. NO. 25) and BamHI (SEQ. ID. NO. 26) to produce a yeast expression vector backbone capable of receiving inserts with like-digested termini. […]"}, "dL9.5 (SEQ. ID. NO. 3)": {"test_system": "dL9.5 (SEQ. ID. NO. 3)", "assay": "Binding of fluorogen by FAP dL9.5", "excerpt": "The V70A mutation was propagated to both light chains to produce dL9.3 (SEQ. ID. NO. 31), which was immediately subjected to mutagenesis and screening in the surface-display format described previously (Chao, et al., Nature Protocols (2006)) in the presence of SKC602. The brightest clone collected from this screen was designated dL9.5 (SEQ. ID. NO. 3), and sequencing described exactly two mutations—tyrosine 96 to histidine—on both light chains."}}, "data": [{"compound": "CN(C)c1ccc(/C=C/C(=C2C=CC(=[N+](C)C)C=C2)c2ccc(N(C)C)cc2)cc1", "note": "[SKC602, (E)-N-(4-(1,3-bis(4-(dimethylamino)phenyl)allylidene)cyclohexa-2,5-dien-1-ylidene)-N-methylmethanaminium]", "values": [{"measurement": "Induction of NIR fluorescence by mL9.5", "setting": "mL9.5 (SEQ. ID. NO. 21)", "value": "induce NIR fluorescence"}]}, {"compound": "CN(C)c1ccc(C(/C=C/c2ccc(N(C)CCCCC(=O)NC(CCS(=O)(=O)O)C(=O)O)cc2)=C2C=CC(=[N+](C)C)C=C2)cc1", "note": "(stereo not drawn) [SKC728]", "values": [{"measurement": "Induction of NIR fluorescence by mL9.5", "setting": "mL9.5 (SEQ. ID. NO. 21)", "value": "induce NIR fluorescence"}, {"measurement": "Binding by dL9.5", "setting": "dL9.5 (SEQ. ID. NO. 3)", "value": "bind"}]}]}
